# Reference: ChEMBL document CHEMBL3044836, “Synthesis, antimicrobial and cytotoxic activities of novel 4-trifluoromethyl-(1,2,3)-thiadiazolo-5-carboxylic acid hydrazide Schiffs bases” (Med Chem Res, 2013)
# Legend:
# MDA-MB-231 [1] = assay: Cytotoxicity against Homo sapiens (human) MDA-MB-231 cells assessed as cell viability at 1 uM after 48 hr by MTT assay relative to control; format: functional; settings: MDA-MB-231, 48 h, read-out: Activity
# MCF7 [2] = assay: Cytotoxicity against Homo sapiens (human) MCF7 cells assessed as cell viability at 10 uM after 48 hr by MTT assay relative to control; format: functional; settings: MCF7, 48 h, read-out: Activity
# MDA-MB-231 [3] = assay: Cytotoxicity against Homo sapiens (human) MDA-MB-231 cells assessed as cell viability at 10 uM after 48 hr by MTT assay relative to control; format: functional; settings: MDA-MB-231, 48 h, read-out: Activity
# Aspergillus niger [4] = assay: Antifungal activity against Aspergillus niger MTCC 1344 assessed as growth inhibition at 150 ug/ml after 48 hr by agar cup diffusion method; format: functional; settings: MTCC 1344, 48 h, read-out: DIZ
# Aspergillus niger [5] = assay: Antifungal activity against Aspergillus niger MTCC 1344 assessed as growth inhibition at 100 ug/ml after 48 hr by agar cup diffusion method; format: functional; settings: MTCC 1344, 48 h, read-out: DIZ
# Saccharomyces cerevisiae [6] = assay: Antifungal activity against Saccharomyces cerevisiae MTCC 36 assessed as growth inhibition at 150 ug/ml after 48 hr by agar cup diffusion method; format: functional; settings: MTCC 36, 48 h, read-out: DIZ
# Saccharomyces cerevisiae [7] = assay: Antifungal activity against Saccharomyces cerevisiae MTCC 36 assessed as growth inhibition at 100 ug/ml after 48 hr by agar cup diffusion method; format: functional; settings: MTCC 36, 48 h, read-out: DIZ
# Diutina rugosa [8] = assay: Antifungal activity against Candida rugosa NCIM 3462 assessed as growth inhibition at 150 ug/ml after 48 hr by agar cup diffusion method; format: functional; settings: NCIM 3462, 48 h, read-out: DIZ
# Diutina rugosa [9] = assay: Antifungal activity against Candida rugosa NCIM 3462 assessed as growth inhibition at 100 ug/ml after 48 hr by agar cup diffusion method; format: functional; settings: NCIM 3462, 48 h, read-out: DIZ
# Candida albicans [10] = assay: Antifungal activity against Candida albicans MTCC 227 assessed as growth inhibition at 150 ug/ml after 48 hr by agar cup diffusion method; format: functional; settings: MTCC 227, 48 h, read-out: DIZ
# Candida albicans [11] = assay: Antifungal activity against Candida albicans MTCC 227 assessed as growth inhibition at 100 ug/ml after 48 hr by agar cup diffusion method; format: functional; settings: MTCC 227, 48 h, read-out: DIZ
# Klebsiella pneumoniae = assay: Antibacterial activity against Klebsiella pneumoniae assessed as growth inhibition by broth dilution method; format: functional
# Pseudomonas aeruginosa = assay: Antibacterial activity against Pseudomonas aeruginosa MTCC 741 assessed as growth inhibition by broth dilution method; format: functional; settings: read-out: MIC
# MCF7 [12] = assay: Cytotoxicity against Homo sapiens (human) MCF7 cells assessed as cell viability after 48 hr by MTT assay; format: functional, cell-based; settings: MCF7, 48 h
# MDA-MB-231 [13] = assay: Cytotoxicity against Homo sapiens (human) MDA-MB-231 cells assessed as cell viability after 48 hr by MTT assay; format: functional, cell-based; settings: MDA-MB-231, 48 h
# Staphylococcus aureus = assay: Antibacterial activity against Staphylococcus aureus MTCC 96 assessed as growth inhibition by broth dilution method; format: functional
# Bacillus subtilis = assay: Antibacterial activity against Bacillus subtilis MTCC 441 assessed as growth inhibition by broth dilution method; format: functional; settings: read-out: MIC
# [14] = system: Staphylococcus epidermidis; assay: Antibacterial activity against Staphylococcus epidermidis MTCC 435 assessed as growth inhibition by broth dilution method; format: functional; settings: read-out: MIC
# Escherichia coli = assay: Antibacterial activity against Escherichia coli MTCC 443 assessed as growth inhibition by broth dilution method; format: functional; settings: read-out: MIC
# Aspergillus niger [15] = assay: Antifungal activity against Aspergillus niger MTCC 1344 assessed as growth inhibition at 50 ug/ml after 48 hr by agar cup diffusion method; format: functional; settings: MTCC 1344, 48 h, read-out: DIZ
# Saccharomyces cerevisiae [16] = assay: Antifungal activity against Saccharomyces cerevisiae MTCC 36 assessed as growth inhibition at 50 ug/ml after 48 hr by agar cup diffusion method; format: functional; settings: MTCC 36, 48 h, read-out: DIZ
# Diutina rugosa [17] = assay: Antifungal activity against Candida rugosa NCIM 3462 assessed as growth inhibition at 50 ug/ml after 48 hr by agar cup diffusion method; format: functional; settings: NCIM 3462, 48 h, read-out: DIZ
# Candida albicans [18] = assay: Antifungal activity against Candida albicans MTCC 227 assessed as growth inhibition at 50 ug/ml after 48 hr by agar cup diffusion method; format: functional; settings: MTCC 227, 48 h, read-out: DIZ
# MCF7 [19] = assay: Cytotoxicity against Homo sapiens (human) MCF7 cells assessed as cell viability at 5 uM after 48 hr by MTT assay relative to control; format: functional; settings: MCF7, 48 h, read-out: Activity
# MDA-MB-231 [20] = assay: Cytotoxicity against Homo sapiens (human) MDA-MB-231 cells assessed as cell viability at 5 uM after 48 hr by MTT assay relative to control; format: functional; settings: MDA-MB-231, 48 h, read-out: Activity
Structure (SMILES),viability at 10 µM (MCF7 [2]) [%],viability at 10 µM (MDA-MB-231 [3]) [%],zone of inhibition at 150 µg/mL (Aspergillus niger [4]) [mm],zone of inhibition at 100 µg/mL (Aspergillus niger [5]) [mm],zone of inhibition at 150 µg/mL (Saccharomyces cerevisiae [6]) [mm],zone of inhibition at 100 µg/mL (Saccharomyces cerevisiae [7]) [mm],zone of inhibition at 150 µg/mL (Diutina rugosa [8]) [mm],zone of inhibition at 100 µg/mL (Diutina rugosa [9]) [mm],zone of inhibition at 150 µg/mL (Candida albicans [10]) [mm],zone of inhibition at 100 µg/mL (Candida albicans [11]) [mm],MIC (Klebsiella pneumoniae; read-out: MIC) [µg/mL],MIC (Pseudomonas aeruginosa) [µg/mL],MIC (Bacillus subtilis) [µg/mL],MIC [14] [µg/mL],MIC (Escherichia coli) [µg/mL],MIC (Staphylococcus aureus) [µg/mL],also measured
C/C(=N\NC(=O)c1snnc1C(F)(F)F)c1ccccn1,63.6,25.4,0,0,0,0,0,0,0,0,150,150,150,150,150,,viability at 1 µM (MDA-MB-231 [1]): 41.7%; IC50 (MCF7 [12]): 6.01 µg/mL; IC50 (MDA-MB-231 [13]): 2.74 µg/mL; MIC (Staphylococcus aureus; read-out: MIC): 150 µg/mL
O=C(N/N=C/c1ccccc1)c1snnc1C(F)(F)F,102,102,0,0,0,0,6,0,12,10,,150,150,150,150,> 150,MIC (Klebsiella pneumoniae): > 150 µg/mL
O=C(N/N=C/c1ccc(F)cc1)c1snnc1C(F)(F)F,99.5,102,0,0,0,0,0,0,0,0,150,150,150,150,150,> 150,
C[C@@H]1[C@H](O)[C@@H](C)/C=C/C=C/C=C/C=C/C=C/C=C/C=C/[C@H](O[C@@H]2O[C@H](C)[C@@H](O)[C@H](N)[C@@H]2O)C[C@@H]2O[C@](O)(C[C@@H](O)C[C@@H](O)[C@H](O)CC[C@@H](O)C[C@@H](O)CC(=O)O[C@H]1C)C[C@H](O)[C@H]2C(=O)O [AMPHOTERICIN B],,,,,,,,,,,,,,,,,zone of inhibition at 50 µg/mL (Aspergillus niger [15]): 25 mm; zone of inhibition at 50 µg/mL (Saccharomyces cerevisiae [16]): 22 mm; zone of inhibition at 50 µg/mL (Diutina rugosa [17]): 21 mm; zone of inhibition at 50 µg/mL (Candida albicans [18]): 23.5 mm
COc1cccc2c1C(=O)c1c(O)c3c(c(O)c1C2=O)C[C@@](O)(C(=O)CO)C[C@@H]3O[C@H]1C[C@H](N)[C@H](O)[C@H](C)O1 [DOXORUBICIN],,,,,,,,,,,,,,,,,viability at 5 µM (MCF7 [19]): 43.1%; viability at 5 µM (MDA-MB-231 [20]): 22.9%
